Legend:
[1] = Absorption and fluorescence properties in water; format: physicochemical; conditions: for λem: λex 360 nm for compound 5, 385 nm for compounds 7 and 10
Description: All chemicals and solvents were purchased from commercial suppliers and used without further purification unless otherwise specified. Prior to use, N,N-dimethylformamide was stored over molecular sieves (4 Å), while toluene and dichloromethane were dried over anhydrous sodium sulfate. All reactions were performed in oven dried flasks under argon atmosphere with magnetic stirring. Reaction progress was monitored by TLC analysis on Macherey-Nagel™ ALUGRAM® Xtra SIL G/UV254 plates. TLC plates were visualized with UV light (wavelengths 254 and 365 nm) or iodine vapour. Compounds were purified by flash chromatography in a glass column (stationary phase - silicagel, high-purity grade 9385, pore size 60 Å, particle size - 230-400 mesh, supplier Sigma-Aldrich). ^1H and ^13C NMR spectra were recorded at room temperature on a Bruker Avance III 700 spectrometer (700 MHz for ^1H and 176 MHz for ^13C) in CDCl3 as solvent. FT-IR spectra were collected using ATR method on a Bruker Vertex 70v spectrometer with an integrated Platinum ATR accessory. The melting points of crystalline compounds were determined in open capillary tubes with a Buchi M-565 apparatus (temperature gradient - 2 °C/min) and are uncorrected. High-resolution mass spectrometry (HRMS) spectra were obtained in ESI mode on a Bruker MicrOTOF-Q III spectrometer. UV-Vis absorption and fluorescence spectra were registered on an Infinity M200 Pro Tecan microplate reader.
Fluorescence properties of final compounds 5, 7 and 10 were investigated in water. The excitation wavelength λex was set to 360 nm for compound 5 and to 385 nm for compounds 7 and 10. The emission maxima λem of all three compounds are located in the 475-525 nm range, which corresponds to the blue part of the visible light spectrum.
On the other hand, as expected an additional double bond in compound 10, compared to compound 7, caused both a bathochromic shift of the emission maxima. […] Table 2. Absorption and fluorescence characteristics of compounds 5, 7 and 10 in water.

[2] = tested on: G361 cell line; assay: MTT cell viability assay without irradiation (dark viability); format: cell-based, human; conditions: G361, treated 24 h, no irradiation; viability similar to untreated cells
Description: G361 cell line (human skin melanoma) was cultivated in DMEM medium supplemented with 10% fetal bovine serum, 1% penicillin/streptomycin, 1% glutamine, at 37 °C in 5% CO2 atmosphere. Viability of cells was determined using the MTT (Sigma-Aldrich) assay in 96-well microplates (10^4 per well in 100 µl of DMEM). The test compounds were added 24 h post plating and the cells were then incubated for additional 24 h. Cells were then exposed to an irradiation in 100 µl of PBS with 5 mM glucose and incubated for further 24 h. After the experiment, 50 µl of MTT (dissolved in PBS) was added and cells were incubated for another 3 h at 37 °C and in 5 % CO2. The media was then carefully replaced with 100 µl of DMSO in order to solubilize the violet formazan crystals. The measurement of absorbance was carried out on reader Synergy HT at 570 nm and 690 nm. The cell viability of the samples was determined as a percentage of the control cell viability (100 × average of test group / average of control group). The data for the determination of EC50 was calculated using the Phototox v. 2.0 software (ZEBET). Dark viability was measured in parallel under the same conditions without irradiation. The viability of cells treated with compounds 5, 7 and 10 for 24 h without irradiation was similar to untreated cells, thus concluding that the compounds have no cytotoxicity up to 10 µM concentrations (Figure 4).

[3] = tested on: irradiated G361 cells; assay: Photodynamic treatment (LED 414 nm) with MTT cell viability assay; format: cell-based; conditions: Homo sapiens, G-361, light or radiation study
Description: G361 cell line (human skin melanoma) was cultivated in DMEM medium supplemented with 10% fetal bovine serum, 1% penicillin/streptomycin, 1% glutamine, at 37 °C in 5% CO2 atmosphere. Viability of cells was determined using the MTT (Sigma-Aldrich) assay in 96-well microplates (10^4 per well in 100 µl of DMEM). The test compounds were added 24 h post plating and the cells were then incubated for additional 24 h. Cells were then exposed to an irradiation in 100 µl of PBS with 5 mM glucose and incubated for further 24 h. After the experiment, 50 µl of MTT (dissolved in PBS) was added and cells were incubated for another 3 h at 37 °C and in 5 % CO2. The media was then carefully replaced with 100 µl of DMSO in order to solubilize the violet formazan crystals. The measurement of absorbance was carried out on reader Synergy HT at 570 nm and 690 nm. The cell viability of the samples was determined as a percentage of the control cell viability (100 × average of test group / average of control group). The data for the determination of EC50 was calculated using the Phototox v. 2.0 software (ZEBET). Dark viability was measured in parallel under the same conditions without irradiation. An in-house constructed LED based light source specifically designed for the irradiation of 96-well microplates and Petri dishes (Tomecka et al., CZ302829B6, 2006) was used; a maximal wavelength emission of 414 nm and light intensity set to 20 mW/cm^2. For photodynamic treatments, cultivation medium was aspirated and replaced by PBS supplemented with 5 mM glucose. Immediately after irradiation, PBS was removed and full DMEM was added to cells. The cultivation lasted for subsequent 24 h. All assays were performed in triplicates and repeated independently three times. In an initial experiment, G361 cells were treated with the tested compounds for 24 h and then exposed to light (LED source, 414 nm) with a total irradiation dose of 10 J/cm^2. Viability of cells was quantified 24 h after the irradiation by an MTT assay (Table 3). Subsequently, G361 cells treated with compound 7 were also exposed to total irradiation doses of 1 and 50 J/cm^2. Table 3. EC50 of compounds 5, 7 and 10 in irradiated G361 cells (10 J/cm2).

[4] = tested on: G361 cell line; assay: Reactive oxygen species (ROS) production, CM-H2DCFDA fluorescence; format: cell-based, human; conditions: G361, 0.052 µM, irradiation of 50 J/cm2 (414 nm)
Description: ROS was quantified using a CM-H2DCFDA (Invitrogen) solution (10 µl 10 µM DCF + 1 ml PBS) and a microplate reader Synergy HT. Right after adding 50 µl of DCF solution, 25 min incubation and irradiation, the ROS production was determined by measuring fluorescence using Synergy HT reader. An excitation wavelength of 485 nm and an emission wavelength of 548 nm were used.

[5] = tested on: G361 cells; assay: Mitochondrial membrane potential change assay (JC-1); format: cell-based, human; conditions: G361, 0.052 µM, irradiated with 50 J/cm^2 (414 nm)
Description: Mitochondrial membrane potential change was monitored by the fluorescent dye JC-1. After 24 h incubation the cells were washed by PBS. Then 50 µl of a JC-1 solution (Sigma-Aldrich) was added (5 mg/ml in DMSO + 5 ml PBS) and cells were incubated at 37 °C and in 5 % CO2 for 20 min. After incubation the cells were washed by PBS twice. The results were expressed as the ratio of the green fluorescence (excitation wavelength - 485 nm, emission wavelength - 548 nm) and red fluorescence (excitation wavelength - 520 nm, emission wavelength - 590 nm) retained within the cells. JC fluorescence was measured using Synergy HT reader.

[6] = tested on: G361 cells; assay: Comet assay (DNA fragmentation); format: cell-based, human; conditions: irradiated with 50 J/cm2
Description: Microscope slides were pre-coated with 1% HMP agarose (Qbiogene) dissolved in distilled water. After stiffening, two 1% agarose spots (dissolved in PBS) were made and overlayed with a cover slip. Treated or control G361 cells were trypsinized, rinsed by DMEM and then the mixture of 25 µl of cell suspension and 85 µl of 1% LMP agarose (dissolved in PBS) was added to the microscope slides with agarose gel. The microscope slides were immersed in a lysis buffer with 1% Triton X for 1 h and then placed in an electrophoretic tank and dipped into a cool electrophoresis solution for 40 min. After the electrophoresis (20 V, 350 mA, 20 min), the microscopic slides were immersed in a neutralisation buffer (10 min twice). The samples were then stained by SYBR Green (Invitrogen) for 15 min and scored by the SW Comet Score (TriTek Corp.). In order to determine the extent of DNA fragmentation caused by a combination of compound 7 and irradiation in G361 cells, comet assay was performed (Figure 4). The cells were divided into four groups according to degree of DNA fragmentation: 0-10%, 11-30%, 31-50% and 50-100%. […] Table 5. Degree of DNA fragmentation in G361 cell line treated by compound 7 at 0.052 µM and irradiated with 50 J/cm2.

[7] = tested on: histone H2A.X phosphorylation at Ser-139; assay: DNA damage by immunoblotting of histone H2A.X phosphorylation; format: cell-based, human; conditions: G361, treated 24 h
Description: After the treatment, cell lysates were prepared in RIPA buffer, then proteins were separated on SDS-polyacrylamide gels and electroblotted onto nitrocellulose membranes. After blocking, overnight incubation with specific primary antibodies and incubation with peroxidase-conjugated secondary antibodies, the peroxidase activity was detected with SuperSignal West Pico reagents (Thermo Scientific) using a CCD camera LAS-4000 (Fujifilm). All primary antibodies were diluted in PBS containing 5% powdered milk and 0.1% Tween 20. The specific antibodies were purchased from Cell Signaling (anti-PARP, clone 46D11; HRP-linked rabbit anti-mouse immunoglobulin), Sigma Aldrich (anti-α-tubulin, clone DM1A), Millipore (anti-phospho-histone H2A.X, Ser139, clone JBW301). To independently confirm DNA damage caused by a combination of compound 7 and irradiation in G361 cells, phosphorylation of histone H2A.X at Ser-139 (yH2A.X) was evaluated using immunoblotting analysis (Figure 5). Increased level of yH2A.X is a well-accepted marker of DNA damage. The cells were treated with different doses of compound 7 for 24 h, then either kept in dark or exposed to light with a total irradiation dose of 1, 10 or 50 J/cm^2 and cultivated for subsequent 24 h. After this period, the cells were harvested and analyzed by immunoblotting.

[8] = tested on: Escherichia coli (DH5alpha); assay: Antimicrobial activity with light irradiation, colony counting; format: cell-based; conditions: in combination with blue light irradiation (414 nm), Fig. 6
Description: Antimicrobial activity was tested on Escherichia coli (DH5alpha).The cells were grown aerobically at 37°C in LB medium. When reached exponential growth phase, the suspension was diluted with fresh LB and supplemented with test compounds or with diluted DMSO (as a control) and seeded on Petri dishes with agar media. After 5 hours the plates were exposed to light from a light emitting diode source, a maximal wavelength emission of 414 nm, light intensity set to 20 mW/cm^2 (M. Tomecka, et al., CZ302829B6, 2006). The control samples for dark toxicity were not exposed to the light. After irradiation the plates were in the dark incubator at 37 °C for 16 h and then the colonies were counted.

[9] = 24 h, G361, 24 h treatment, 414 nm, total irradiation dose 10 J/cm2, MTT 24 h after irradiation

SMILES: CCCCCCOc1nn(-c2ccccc2)cc1/C=C/C=C/c1ccc2c(c1)C(C)(C)C(c1ccccc1)=N2 [Compound 10, 5-{(1E, 3E)-4-[3-(Hexyloxy)-1-phenyl-1H-pyrazol-4-yl]buta-1,3-dien-1-yl}-3,3-dimethyl-2-phenyl-3H-indole]
- λabs [1]: 380 nm
- λem [1]: 525 nm
- cytotoxicity without irradiation (dark viability) [2]: > 10 µM
- EC50 [3, 9]: 2060 ± 82 nM

SMILES: CCCCCCOc1nn(-c2ccccc2)cc1/C=C/c1ccc2c(c1)C(C)(C)C(c1ccccc1)=N2 [Compound 7, 5-{(E)-2-[3-(Hexyloxy)-1-phenyl-1H-pyrazol-4-yl]ethenyl}-3,3-dimethyl-2-phenyl-3H-indole]
- λabs [1]: 380 nm
- λem [1]: 495 nm
- cytotoxicity without irradiation (dark viability) [2]: > 10 µM
- EC50 [3, 9]: 262 ± 2 nM
- EC50 ([3]; G361, 414 nm, total irradiation dose 1 J/cm^2): 3080 ± 155 nM
- EC50 ([3]; G361, 414 nm, total irradiation dose 50 J/cm^2): 52 nM
- ROS production increase in comparison to control cells [4]: 30%
- JC-1 polymer aggregation within mitochondria (mitochondrial membrane potential) [5]: decrease in JC-1 polymer aggregation within mitochondria
- DNA fragmentation in comparison with untreated control cells ([6]; G361, 0.052 µM): significant DNA fragmentation
- relative number of cells, degree of DNA fragmentation 0-10 % ([6]; G361, treated, 0.052 µM): 62.83 ± 2.72%
- relative number of cells, degree of DNA fragmentation 11-30 % ([6]; G361, treated, 0.052 µM): 30.73 ± 4.07%
- relative number of cells, degree of DNA fragmentation 31-50 % ([6]; G361, treated, 0.052 µM): 4.84 ± 0.65%
- relative number of cells, degree of DNA fragmentation 51-100 % ([6]; G361, treated, 0.052 µM): 1.6 ± 1.59%
- H2A.X phosphorylation (yH2A.X) ([7]; irradiation dose 1 J/cm2 (414 nm)): faint yH2A.X signal
- H2A.X phosphorylation (yH2A.X) ([7]; irradiation dose 10 J/cm2 (414 nm)): massive increase of yH2A.X
- H2A.X phosphorylation (yH2A.X) ([7]; irradiation dose 50 J/cm2 (414 nm)): massive increase of yH2A.X
- H2A.X phosphorylation (yH2A.X) ([7]; kept in dark): did not show any H2A.X phosphorylation
- antibacterial effect [8]: antibacterial effect

SMILES: CCCCCCOc1nn(-c2ccccc2)cc1C#Cc1ccc2c(c1)C(C)(C)C(c1ccccc1)=N2 [Compound 5, 5-{[3-(Hexyloxy)-1-phenyl-1H-pyrazol-4-yl]ethynyl}-3,3-dimethyl-2-phenyl-3H-indole]
- λabs [1]: 355 nm
- λem [1]: 475 nm
- cytotoxicity without irradiation (dark viability) [2]: > 10 µM
- EC50 [3, 9]: 6213 ± 38 nM

From patent EP4107145B1, “PYRAZOLE-INDOLE CONJUGATES FOR PHOTODYNAMIC TREATMENT OF CANCER AND BACTERIAL INFECTIONS” (Univerzita Palackého v Olomouci, priority 2020, dated 2021)
